In patent US11939331B2, “Tricyclic heterocycles as FGFR inhibitors” (Incyte Corporation, priority 2021, dated 2024):

Biological target: wild-type un-phosphorylated FGFR3 protein (Homo sapiens, UniProt P22607)
Assay: FGFR Enzymatic Assay (FRET peptide phosphorylation)
Procedure: The inhibitor potency of the exemplified compounds was determined in an enzyme discontinuous assay that measures peptide phosphorylation using FRET measurements to detect product formation. Inhibitors were serially diluted in DMSO and a volume of 0.2 μL was transferred to the wells of a 384-well plate. A 5 μL/well volume of enzyme isoforms of FGFR (-1, -2, -3 wild-type and mutant isoforms, -4) including phosphorylated and un-phosphorylated proteins diluted in assay buffer (50 mM HEPES, 10 mM MgCl2, 1 mM EGTA, 0.01% Tween-20, 5 mM DTT, pH 7.5) was added to the plate and pre-incubated with inhibitor for 5 to 15 minutes at ambient temperature. Appropriate controls (enzyme blank and enzyme with no inhibitor) were included on the plate. The reaction was initiated by the addition of a 5 μL/well volume containing both biotinylated [sequence] peptide substrate (SEQ ID NO: 1) and ATP in assay buffer. The 10 μL/well reaction concentration of the peptide substrate was 500 nM whereas the ATP concentration was maintained near or below the ATP Km. The ATP Km values were pre-determined in a separate series of experiments. The reaction plate was incubated at 25° C. for 1 hr and the reactions were ended with the addition of 5 μL/well of quench solution (50 mM Tris, 150 mM NaCl, 0.5 mg/mL BSA, pH 7.8; 45 mM EDTA, 600 nM staurosporin, with Perkin Elmer Lance Reagents at 3.75 nM Eu-antibody PY20 and 180 nM APC-Streptavidin). The plate was allowed to equilibrate for ˜10 minutes at ambient temperature before scanning on a PheraStar plate reader (BMG Labtech) instrument.
Either GraphPad prism or XLfit was used to analyze the data. The IC50 values were derived by fitting the data to a four parameter logistic equation producing a sigmoidal dose-response curve with a variable Hill coefficient. Prism equation: Y=Bottom+(Top−Bottom)/(1+10^((Log IC50−X)*Hill slope)); XLfit equation: Y=(A+((B−A)/(1+((X/C)^D)))) where X is the logarithm of inhibitor concentration and Y is the response.

Sequence of wild-type un-phosphorylated FGFR3 protein (P22607 23-806): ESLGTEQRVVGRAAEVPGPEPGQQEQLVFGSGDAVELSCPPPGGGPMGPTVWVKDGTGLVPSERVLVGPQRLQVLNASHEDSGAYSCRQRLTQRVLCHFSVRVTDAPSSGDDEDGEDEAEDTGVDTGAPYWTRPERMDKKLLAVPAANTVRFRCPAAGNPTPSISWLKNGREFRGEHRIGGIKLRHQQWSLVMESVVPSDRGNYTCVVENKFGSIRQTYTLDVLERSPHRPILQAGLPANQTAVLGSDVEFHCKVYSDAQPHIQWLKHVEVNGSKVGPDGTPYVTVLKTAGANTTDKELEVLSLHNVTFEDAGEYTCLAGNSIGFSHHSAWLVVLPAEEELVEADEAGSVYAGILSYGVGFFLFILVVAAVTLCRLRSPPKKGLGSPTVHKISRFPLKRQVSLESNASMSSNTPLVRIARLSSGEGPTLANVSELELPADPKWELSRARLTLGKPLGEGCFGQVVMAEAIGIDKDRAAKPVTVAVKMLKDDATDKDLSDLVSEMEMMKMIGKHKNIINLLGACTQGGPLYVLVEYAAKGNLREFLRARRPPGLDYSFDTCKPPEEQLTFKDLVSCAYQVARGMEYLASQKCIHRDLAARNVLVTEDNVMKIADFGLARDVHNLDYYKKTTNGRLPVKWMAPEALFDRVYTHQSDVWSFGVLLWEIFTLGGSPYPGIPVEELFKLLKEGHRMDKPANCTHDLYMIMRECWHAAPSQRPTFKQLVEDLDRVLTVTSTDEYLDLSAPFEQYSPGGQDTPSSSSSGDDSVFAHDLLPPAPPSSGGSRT

| IC50 [nM] | Structure (SMILES) |
| --- | --- |
| < 0.1 | NC(=O)c1c(-c2c(Cl)cccc2Cl)nc2c3cc(-c4cnn(CC(F)(F)F)c4)cnc3ccn12 [Example 33, 2-(2,6-Dichlorophenyl)-9-(1-(2,2,2-trifluoroethyl)-1H-pyrazol-4-yl)imidazo[2,1-f][1,6]naphthyridine-3-carboxamide] |
| < 0.1 | CN(C)CCn1cc(-c2cnc3ccn4c(C(N)=O)c(-c5c(Cl)cccc5Cl)nc4c3c2)cn1 [Example 34, 2-(2,6-Dichlorophenyl)-9-(1-(2-(dimethylamino)ethyl)-1H-pyrazol-4-yl)imidazo[2,1-f][1,6]naphthyridine-3-carboxamide] |
| < 0.1 | COCC(C)(C)n1cc(-c2cnc3ccn4c(C(N)=O)c(-c5c(Cl)cccc5Cl)nc4c3c2)cn1 [Example 35, 2-(2,6-Dichlorophenyl)-9-(1-(1-methoxy-2-methylpropan-2-yl)-1H-pyrazol-4-yl)imidazo[2,1-f][1,6]naphthyridine-3-carboxamide] |
| < 0.1 | CC(O)Cn1cc(-c2cnc3ccn4c(C(N)=O)c(-c5c(Cl)cccc5Cl)nc4c3c2)cn1 (centres unmarked) [Example 36, 2-(2,6-Dichlorophenyl)-9-(1-(2-hydroxypropyl)-1H-pyrazol-4-yl)imidazo[2,1-f][1,6]naphthyridine-3-carboxamide] |
| < 0.1 | CN(C)CCCn1cc(-c2cnc3ccn4c(C(N)=O)c(-c5c(Cl)cccc5Cl)nc4c3c2)cn1 [Example 37, 2-(2,6-Dichlorophenyl)-9-(1-(3-(dimethylamino)propyl)-1H-pyrazol-4-yl)imidazo[2,1-f][1,6]naphthyridine-3-carboxamide] |
| 0.1 to 1 | NC(=O)c1c(-c2c(Cl)cccc2Cl)nc2c3cc(-c4ccc(=O)[nH]c4)cnc3ccn12 [Example 39, 2-(2,6-Dichlorophenyl)-9-(6-oxo-1,6-dihydropyridin-3-yl)imidazo[2,1-f][1,6]naphthyridine-3-carboxamide] |
| 1 to 10 | CC(C)c1[nH]ncc1-c1cnc2ccn3c(C(N)=O)c(-c4c(Cl)cccc4Cl)nc3c2c1 [Example 40, 2-(2,6-Dichlorophenyl)-9-(5-isopropyl-1H-pyrazol-4-yl)imidazo[2,1-f][1,6]naphthyridine-3-carboxamide] |
| 0.1 to 1 | NC(=O)c1c(-c2c(Cl)cccc2Cl)nc2c3cc(-c4cnn5c4CCC5)cnc3ccn12 [Example 41, 2-(2,6-Dichlorophenyl)-9-(5,6-dihydro-4H-pyrrolo[1,2-b]pyrazol-3-yl)imidazo[2,1-f][1,6]naphthyridine-3-carboxamide] |
| 1 to 10 | CC(C)(O)c1cncc(-c2cnc3ccn4c(C(N)=O)c(-c5c(Cl)cccc5Cl)nc4c3c2)c1 [Example 42, 2-(2,6-Dichlorophenyl)-9-(5-(2-hydroxypropan-2-yl)pyridin-3-yl)imidazo[2,1-f][1,6]naphthyridine-3-carboxamide] |
| 0.1 to 1 | CNc1ncc(-c2cnc3ccn4c(C(N)=O)c(-c5c(Cl)cccc5Cl)nc4c3c2)cn1 [Example 43, 2-(2,6-Dichlorophenyl)-9-(2-(methylamino)pyrimidin-5-yl)imidazo[2,1-f][1,6]naphthyridine-3-carboxamide] |
| < 0.1 | NC(=O)c1c(-c2c(Cl)cccc2Cl)nc2c3cc(-c4cnn(C5CCOC5)c4)cnc3ccn12 (centres unmarked) [Example 44, 2-(2,6-Dichlorophenyl)-9-(1-(tetrahydrofuran-3-yl)-1H-pyrazol-4-yl)imidazo[2,1-f][1,6]naphthyridine-3-carboxamide] |
| 0.1 to 1 | NC(=O)c1c(-c2c(Cl)cccc2Cl)nc2c3cc(-c4cnn(CCN5CCOCC5)c4)cnc3ccn12 [Example 45, 2-(2,6-Dichlorophenyl)-9-(1-(2-morpholinoethyl)-1H-pyrazol-4-yl)imidazo[2,1-f][1,6]naphthyridine-3-carboxamide] |
| 0.1 to 1 | CN1CCN(CCn2cc(-c3cnc4ccn5c(C(N)=O)c(-c6c(Cl)cccc6Cl)nc5c4c3)cn2)CC1 [Example 46, 2-(2,6-Dichlorophenyl)-9-(1-(2-(4-methylpiperazin-1-yl)ethyl)-1H-pyrazol-4-yl)imidazo[2,1-f][1,6]naphthyridine-3-carboxamide] |
| < 0.1 | NC(=O)c1c(-c2c(Cl)cccc2Cl)nc2c3cc(-c4cnn(CCCO)c4)cnc3ccn12 [Example 47, 2-(2,6-Dichlorophenyl)-9-(1-(3-hydroxypropyl)-1H-pyrazol-4-yl)imidazo[2,1-f][1,6]naphthyridine-3-carboxamide] |
| < 0.1 | N#CCCn1cc(-c2cnc3ccn4c(C(N)=O)c(-c5c(Cl)cccc5Cl)nc4c3c2)cn1 [Example 48, 9-(1-(2-Cyanoethyl)-1H-pyrazol-4-yl)-2-(2,6-dichlorophenyl)imidazo[2,1-f][1,6]naphthyridine-3-carboxamide] |
| < 0.1 | NC(=O)Cn1cc(-c2cnc3ccn4c(C(N)=O)c(-c5c(Cl)cccc5Cl)nc4c3c2)cn1 [Example 49, 9-(1-(2-Amino-2-oxoethyl)-1H-pyrazol-4-yl)-2-(2,6-dichlorophenyl)imidazo[2,1-f][1,6]naphthyridine-3-carboxamide] |
| 0.1 to 1 | CC(C)(O)c1ccc(-c2cnc3ccn4c(C(N)=O)c(-c5c(Cl)cccc5Cl)nc4c3c2)cn1 [Example 50, 2-(2,6-Dichlorophenyl)-9-(6-(2-hydroxypropan-2-yl)pyridin-3-yl)imidazo[2,1-f][1,6]naphthyridine-3-carboxamide] |
| 0.1 to 1 | NC(=O)c1c(-c2c(Cl)cccc2Cl)nc2c3cc(-c4ccc(CC(F)(F)F)nc4)cnc3ccn12 [Example 51, 2-(2,6-Dichlorophenyl)-9-(6-(2,2,2-trifluoroethyl)pyridin-3-yl)imidazo[2,1-f][1,6]naphthyridine-3-carboxamide] |
| 0.1 to 1 | CNC(=O)c1ccc(-c2cnc3ccn4c(C(N)=O)c(-c5c(Cl)cccc5Cl)nc4c3c2)cn1 [Example 52, 2-(2,6-Dichlorophenyl)-9-(6-(methylcarbamoyl)pyridin-3-yl)imidazo[2,1-f][1,6]naphthyridine-3-carboxamide] |
| < 0.1 | NC(=O)c1c(-c2c(Cl)cccc2Cl)nc2c3cc(C4=CCC(O)CC4)cnc3ccn12 (centres unmarked) [Example 53, 2-(2,6-Dichlorophenyl)-9-(4-hydroxycyclohex-1-en-1-yl)imidazo[2,1-f][1,6]naphthyridine-3-carboxamide] |
| 10 to 50 | CC(C)(O)c1cnc2ccn3c(C(N)=O)c(-c4c(Cl)cccc4Cl)nc3c2c1 [Example 55, 2-(2,6-Dichlorophenyl)-9-(2-hydroxypropan-2-yl)imidazo[2,1-f][1,6]naphthyridine-3-carboxamide] |
| 10 to 50 | Cc1nc2c3cc(-c4cnn(C5CCOCC5)c4)cnc3ccn2c1C(N)=O [Example 57, 2-Methyl-9-(1-(tetrahydro-2H-pyran-4-yl)-1H-pyrazol-4-yl)imidazo[2,1-f][1,6]naphthyridine-3-carboxamide] |
| 10 to 50 | NC(=O)c1cnc2c3cc(-c4cnn(C5CCOCC5)c4)cnc3ccn12 [Example 58, 9-(1-(Tetrahydro-2H-pyran-4-yl)-1H-pyrazol-4-yl)imidazo[2,1-f][1,6]naphthyridine-3-carboxamide] |
